The record followed here is patent US8703961B2, “Thiazole derivatives for the treatment of diseases such as cancer” (Merck Patent GmbH, priority 2009, dated 2014).

Each structure is given as a SMILES string.

Type in all cases: biochemical
Experiment [1] concerns the target T1, NUAK1 (Homo sapiens, UniProt O60285).
T1 construct: purchased
T1 sequence (O60285 1-661): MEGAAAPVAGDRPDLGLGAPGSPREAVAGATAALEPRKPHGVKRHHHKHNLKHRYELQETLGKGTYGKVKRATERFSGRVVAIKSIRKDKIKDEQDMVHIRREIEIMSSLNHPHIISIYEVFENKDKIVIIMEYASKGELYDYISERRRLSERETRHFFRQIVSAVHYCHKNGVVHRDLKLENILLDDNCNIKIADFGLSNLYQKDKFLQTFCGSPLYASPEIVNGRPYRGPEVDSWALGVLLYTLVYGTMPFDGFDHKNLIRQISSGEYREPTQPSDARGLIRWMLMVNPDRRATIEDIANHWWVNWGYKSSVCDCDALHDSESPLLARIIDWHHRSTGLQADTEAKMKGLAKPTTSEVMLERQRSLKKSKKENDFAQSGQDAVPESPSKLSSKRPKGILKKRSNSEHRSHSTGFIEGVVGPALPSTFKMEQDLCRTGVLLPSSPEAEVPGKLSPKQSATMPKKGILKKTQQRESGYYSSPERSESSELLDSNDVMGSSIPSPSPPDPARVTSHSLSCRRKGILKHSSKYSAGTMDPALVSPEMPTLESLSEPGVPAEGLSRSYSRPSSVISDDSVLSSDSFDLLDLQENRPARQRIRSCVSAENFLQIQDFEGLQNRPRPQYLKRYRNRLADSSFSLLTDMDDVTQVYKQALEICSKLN
The experiment in a line: filter binding assay of NUAK1 inhibition. The conditions noted are these: for IC50: derived from % inhibition at 1 μM; for remaining activity at 1 µM: read-out: residual kinase activity NUAK1. The procedure: (§1) All kinase assays were carried out using the Multidrop 384 from Thermo-Fisher at room temperature in a total assay volume of 25.5 μl. 15 μl of an enzyme mix comprising enzyme and substrate in buffer are added to the test batch comprising either 0.5 μl of test substance, DMSO control or empty container. Test substances are pre-incubated in the presence of the enzyme and substrate for 5 minutes before the reaction is initiated by addition of 10 μl of ATP (concentration kinase-dependent of […]). The reaction is terminated by addition of 5 μl of orthophosphoric acid (50 mM). The test containers are then transferred onto P81 Unifilter plates by means of a “Packard Harvester” and dried in air. The dry Unifilter plates are sealed after the addition of MicroScint O, and the radioactivity is determined in a Packard Topcount NXT.
NUAK1 (5-20 mU diluted in 50 mM Tris pH 7.5, 0.1 mM EGTA, 0.1% β-mercaptoethanol, 1 mg/ml of BSA) is tested against ALNRTSSDSALHRRR as substrate. The final volume of 25.5 μl contains 50 mM Tris pH 7.5, 0.1 mM EGTA, 0.3 mM ALNRTSSDSALHRRR, 10 mM magnesium acetate and 0.02 mM [^33P-γ-ATP] (50-1000 cpm/pmole) and is incubated at room temperature for 30 min. Tests are terminated by the addition of 5 μl of a 0.5 M (3%) orthophosphoric acid soln. and then transferred onto P81 Unifilter plates and washed with 50 mM orthophosphoric acid buffer.

In experiment [2] the target is MAPK8 (Homo sapiens, UniProt P45983). The experiment can be described thus: filter binding kinase assay. Also noted: purchased. The settings on record: derived from % inhibition at 1 μM; first MAPK8 line. The method, then: as §1
Chain of MAPK8 (P45983 whole entry, species assumed): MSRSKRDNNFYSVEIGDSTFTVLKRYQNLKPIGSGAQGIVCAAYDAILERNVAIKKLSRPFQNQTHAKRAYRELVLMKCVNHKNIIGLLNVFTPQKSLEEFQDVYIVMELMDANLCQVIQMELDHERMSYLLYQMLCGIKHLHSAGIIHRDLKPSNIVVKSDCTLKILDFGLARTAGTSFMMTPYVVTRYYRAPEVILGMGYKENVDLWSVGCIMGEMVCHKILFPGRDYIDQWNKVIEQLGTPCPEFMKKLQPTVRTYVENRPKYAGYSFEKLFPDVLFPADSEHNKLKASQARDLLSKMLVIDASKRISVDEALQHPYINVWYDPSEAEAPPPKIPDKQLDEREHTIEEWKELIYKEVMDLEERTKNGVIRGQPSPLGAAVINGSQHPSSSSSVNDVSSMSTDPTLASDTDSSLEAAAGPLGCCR
The target in experiment [3] is T2, TTK (Homo sapiens, UniProt P33981).
T2 construct: purchased
T2 sequence (P33981 1-857): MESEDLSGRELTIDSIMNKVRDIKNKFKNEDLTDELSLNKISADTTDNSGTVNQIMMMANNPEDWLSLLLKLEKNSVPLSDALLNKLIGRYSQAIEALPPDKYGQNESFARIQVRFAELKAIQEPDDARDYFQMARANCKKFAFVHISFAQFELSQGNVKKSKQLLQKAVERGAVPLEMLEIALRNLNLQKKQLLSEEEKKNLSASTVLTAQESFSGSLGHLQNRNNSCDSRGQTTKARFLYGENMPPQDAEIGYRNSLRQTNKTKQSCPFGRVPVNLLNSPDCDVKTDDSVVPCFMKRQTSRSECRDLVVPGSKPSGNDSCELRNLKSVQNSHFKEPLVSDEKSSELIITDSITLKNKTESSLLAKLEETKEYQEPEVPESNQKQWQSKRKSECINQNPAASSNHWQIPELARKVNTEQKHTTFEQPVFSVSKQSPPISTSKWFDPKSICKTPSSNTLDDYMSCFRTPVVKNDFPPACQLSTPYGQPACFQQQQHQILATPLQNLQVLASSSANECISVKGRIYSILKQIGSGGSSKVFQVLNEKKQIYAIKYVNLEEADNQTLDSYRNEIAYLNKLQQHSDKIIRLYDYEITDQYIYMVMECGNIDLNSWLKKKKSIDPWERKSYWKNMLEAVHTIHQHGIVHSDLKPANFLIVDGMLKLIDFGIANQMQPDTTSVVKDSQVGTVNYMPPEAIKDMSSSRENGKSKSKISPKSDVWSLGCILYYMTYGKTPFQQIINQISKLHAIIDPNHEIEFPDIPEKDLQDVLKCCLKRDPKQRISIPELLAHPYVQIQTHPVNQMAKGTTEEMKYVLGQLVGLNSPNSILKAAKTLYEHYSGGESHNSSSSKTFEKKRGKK
The experiment can be described thus: filter binding kinase assay. The conditions noted are these: derived from % inhibition at 1 μM. The procedure: as §1

The target of experiment [4] is T3, IGF1R (Homo sapiens, UniProt P08069).
T3 construct: purchased
T3 sequence (P08069 31-1367, species assumed): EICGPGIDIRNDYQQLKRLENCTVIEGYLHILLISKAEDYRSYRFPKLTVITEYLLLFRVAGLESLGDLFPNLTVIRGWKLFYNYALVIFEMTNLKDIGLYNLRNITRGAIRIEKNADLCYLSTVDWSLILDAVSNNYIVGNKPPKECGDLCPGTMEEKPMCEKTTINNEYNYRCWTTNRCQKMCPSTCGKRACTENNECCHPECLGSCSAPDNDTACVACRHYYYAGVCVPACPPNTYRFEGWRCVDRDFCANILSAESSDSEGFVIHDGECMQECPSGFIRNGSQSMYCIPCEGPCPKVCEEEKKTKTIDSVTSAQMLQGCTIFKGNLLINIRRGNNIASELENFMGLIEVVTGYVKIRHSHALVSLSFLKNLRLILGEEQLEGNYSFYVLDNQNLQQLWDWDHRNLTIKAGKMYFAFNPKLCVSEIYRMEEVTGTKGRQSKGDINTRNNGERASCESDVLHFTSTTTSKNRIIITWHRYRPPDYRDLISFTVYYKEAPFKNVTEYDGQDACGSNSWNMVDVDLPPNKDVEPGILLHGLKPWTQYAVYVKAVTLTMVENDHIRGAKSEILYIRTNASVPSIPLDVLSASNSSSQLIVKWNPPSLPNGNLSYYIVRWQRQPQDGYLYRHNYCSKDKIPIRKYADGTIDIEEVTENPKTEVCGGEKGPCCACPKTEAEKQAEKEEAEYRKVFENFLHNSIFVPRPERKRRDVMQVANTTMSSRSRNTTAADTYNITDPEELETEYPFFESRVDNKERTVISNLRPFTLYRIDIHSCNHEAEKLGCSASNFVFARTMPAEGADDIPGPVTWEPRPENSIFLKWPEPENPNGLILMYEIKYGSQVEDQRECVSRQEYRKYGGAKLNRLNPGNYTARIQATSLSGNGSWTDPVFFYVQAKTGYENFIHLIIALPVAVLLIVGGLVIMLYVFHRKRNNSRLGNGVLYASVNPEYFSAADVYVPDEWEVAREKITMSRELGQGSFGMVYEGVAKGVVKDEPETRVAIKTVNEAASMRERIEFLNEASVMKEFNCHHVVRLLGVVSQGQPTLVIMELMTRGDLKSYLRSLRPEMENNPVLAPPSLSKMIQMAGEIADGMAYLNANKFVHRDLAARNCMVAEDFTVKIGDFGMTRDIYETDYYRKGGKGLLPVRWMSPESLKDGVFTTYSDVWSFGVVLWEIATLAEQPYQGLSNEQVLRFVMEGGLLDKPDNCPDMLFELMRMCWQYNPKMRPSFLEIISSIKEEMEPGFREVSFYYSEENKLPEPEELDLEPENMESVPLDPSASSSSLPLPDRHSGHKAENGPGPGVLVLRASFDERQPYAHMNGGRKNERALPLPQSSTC
The experiment can be described thus: filter binding kinase assay. The settings on record: derived from % inhibition at 1 μM. The method, then:
as §1

Experiment [5] concerns the target T4, TBK1 (Homo sapiens, UniProt Q9UHD2).
T4 construct: purchased
T4 sequence (Q9UHD2 1-729): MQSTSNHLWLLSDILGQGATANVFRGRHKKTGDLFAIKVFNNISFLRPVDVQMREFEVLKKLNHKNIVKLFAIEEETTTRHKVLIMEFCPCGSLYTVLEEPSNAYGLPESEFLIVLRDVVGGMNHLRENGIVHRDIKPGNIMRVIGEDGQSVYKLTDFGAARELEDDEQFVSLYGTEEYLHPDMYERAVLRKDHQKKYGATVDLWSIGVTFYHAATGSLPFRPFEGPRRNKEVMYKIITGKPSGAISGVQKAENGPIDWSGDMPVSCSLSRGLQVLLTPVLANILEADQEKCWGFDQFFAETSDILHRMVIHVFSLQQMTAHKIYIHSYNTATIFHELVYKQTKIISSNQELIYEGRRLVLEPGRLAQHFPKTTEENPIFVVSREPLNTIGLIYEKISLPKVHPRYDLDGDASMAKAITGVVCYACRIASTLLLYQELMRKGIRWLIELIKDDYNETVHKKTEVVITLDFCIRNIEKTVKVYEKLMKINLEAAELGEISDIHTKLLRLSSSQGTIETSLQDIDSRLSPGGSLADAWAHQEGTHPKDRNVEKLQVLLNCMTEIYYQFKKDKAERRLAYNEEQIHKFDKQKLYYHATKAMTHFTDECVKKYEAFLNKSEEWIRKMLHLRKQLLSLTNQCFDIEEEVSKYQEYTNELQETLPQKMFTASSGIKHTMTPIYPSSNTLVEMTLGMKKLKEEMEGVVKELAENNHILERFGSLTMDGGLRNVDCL
The experiment in a line: filter binding kinase assay. The conditions noted are these: derived from % inhibition at 1 μM. The method, then: as §1

On to `Nc1ncsc1C#Cc1cccc(O)c1` [Compound A27, 3-(4-aminothiazol-5-ylethynyl)phenol], for which the IC50 is 0.01 to 1 µM in experiment [1]; 1 to 10 µM in experiment [2]; 10 to 100 µM in experiment [3]; above 1 µM in experiment [4]; above 1 µM in experiment [5]. Further, the remaining activity at 1 µM in experiment [1] is 49%.

Consider `CC(C)(C)OC(=O)Nc1ncsc1C#CCN1C(=O)c2ccccc2C1=O` [Compound A26, tert-butyl{5-[3-(1,3-dioxo-1,3-dihydroisoindol-2-yl)prop-1-ynyl]-thiazol-4-yl}carbamate], for which the IC50 is 0.01 to 1 µM in experiment [1]; 10 to 100 µM in experiment [2]; 10 to 100 µM in experiment [3]; above 1 µM in experiment [4]; above 1 µM in experiment [5]. Besides, in experiment [1], the remaining activity at 1 µM stood at 24%.

As to `CC(C)(C)OC(=O)Nc1nc(-c2ccncc2)sc1C#CCN1CCOCC1` [Compound A25, tert-butyl[5-(3-morpholin-4-ylprop-1-ynyl)-2-pyridin-4-ylthiazol-4-yl]-carbamate], the IC50 was 10 to 100 µM in experiment [1]; above 1 µM in experiment [2]; 10 to 100 µM in experiment [3]; above 1 µM in experiment [4]; 10 to 100 µM in experiment [5].

Turning to `c1ccc(Cc2c[nH]c3ncsc23)cc1` [Compound A7, 6-benzyl-4H-pyrrolo[2,3-d]thiazole], the IC50 in experiment [1] was 0.01 to 1 µM; in experiment [2], 1 to 10 µM; in experiment [3] it was 10 to 100 µM; in experiment [4], 10 to 100 µM; in experiment [5] it was above 1 µM. Moreover, the remaining activity at 1 µM in experiment [1] amounted to 27%.

In the case of `Nc1ncsc1C#Cc1cnc2[nH]ccc2c1` [Compound A22, 5-(1H-pyrrolo[2,3-b]pyridin-5-ylethynyl)thiazol-4-ylamine], the IC50 in experiment [1] was 0.01 to 1 µM; in experiment [3], 10 to 100 µM; in experiment [4], 1 to 10 µM; in experiment [5], above 1 µM. Moreover, in experiment [1], the remaining activity at 1 µM is 16%.

In general, IC50 refers to the concentration that gives 50% inhibition. A high value points to weaker potency.
